{"source": "paper PMC9898036", "about": "“VIP152 is a selective CDK9 inhibitor with pre-clinical in vitro and in vivo efficacy in chronic lymphocytic leukemia” (Leukemia, 2022)", "key": {"[1]": {"molecular_target": "T1, CDK9 in complex with Cyclin T2 (Homo sapiens, UniProt P50750)", "T1 sequence (P50750 whole entry)": "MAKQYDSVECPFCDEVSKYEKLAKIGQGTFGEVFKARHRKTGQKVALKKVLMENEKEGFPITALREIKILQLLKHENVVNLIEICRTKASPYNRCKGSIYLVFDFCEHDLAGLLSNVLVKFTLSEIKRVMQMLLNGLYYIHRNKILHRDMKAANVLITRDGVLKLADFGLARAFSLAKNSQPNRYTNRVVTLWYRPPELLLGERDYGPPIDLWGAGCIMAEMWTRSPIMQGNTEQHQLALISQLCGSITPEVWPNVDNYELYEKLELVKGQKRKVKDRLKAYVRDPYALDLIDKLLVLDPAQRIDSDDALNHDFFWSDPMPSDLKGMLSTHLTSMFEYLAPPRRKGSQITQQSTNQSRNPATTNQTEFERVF", "T1 sequence (O60583 whole entry partner)": "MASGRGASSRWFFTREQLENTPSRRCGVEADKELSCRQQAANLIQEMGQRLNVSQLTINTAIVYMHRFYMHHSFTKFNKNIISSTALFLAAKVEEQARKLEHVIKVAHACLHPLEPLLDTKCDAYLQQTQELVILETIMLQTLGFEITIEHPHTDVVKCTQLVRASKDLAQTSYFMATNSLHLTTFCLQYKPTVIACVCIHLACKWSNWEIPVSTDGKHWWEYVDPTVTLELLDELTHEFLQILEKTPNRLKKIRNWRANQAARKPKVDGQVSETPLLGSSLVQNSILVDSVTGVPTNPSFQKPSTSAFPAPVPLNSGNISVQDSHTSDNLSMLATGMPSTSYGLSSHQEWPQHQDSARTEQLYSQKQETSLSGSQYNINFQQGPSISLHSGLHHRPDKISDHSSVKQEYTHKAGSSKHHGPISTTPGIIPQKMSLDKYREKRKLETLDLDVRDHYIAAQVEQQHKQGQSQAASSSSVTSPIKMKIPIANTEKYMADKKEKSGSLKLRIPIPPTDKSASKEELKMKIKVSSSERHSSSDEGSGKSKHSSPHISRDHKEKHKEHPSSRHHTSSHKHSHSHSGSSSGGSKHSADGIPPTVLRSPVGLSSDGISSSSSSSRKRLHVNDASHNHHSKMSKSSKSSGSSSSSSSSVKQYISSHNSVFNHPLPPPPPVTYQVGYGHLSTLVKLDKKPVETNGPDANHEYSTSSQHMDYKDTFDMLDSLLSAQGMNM", "experiment": "NanoBRET target engagement assay (HEK293)", "format": "cell-based"}, "α2C receptor": {"molecular_target": "T2, α2C receptor (Homo sapiens, UniProt P18825)", "T2 construct": "purchased Eurofins", "experiment": "Eurofins Diversity Panel: adrenergic α2C receptor", "format": "binding"}, "Estrogen Erα": {"molecular_target": "Estrogen Erα (Homo sapiens, UniProt P03372)", "experiment": "Eurofins Diversity Panel", "format": "binding", "settings": "hum, Conc. 10 μM"}, "GABAA, Muscimol, Central": {"tested_on": "GABAA, Muscimol, Central", "experiment": "Eurofins Diversity Panel", "format": "binding", "settings": "rat, Conc. 10 μM"}, "GABAB1A": {"molecular_target": "GABAB1A (Homo sapiens, UniProt Q9UBS5)", "experiment": "Eurofins Diversity Panel", "format": "binding", "settings": "hum, Conc. 10 μM"}, "Glutamate, NMDA, Glycine": {"molecular_target": "Glutamate, NMDA, Glycine (Rattus norvegicus, UniProt P35439)", "sequence (P35439 394-800 limits assumed)": "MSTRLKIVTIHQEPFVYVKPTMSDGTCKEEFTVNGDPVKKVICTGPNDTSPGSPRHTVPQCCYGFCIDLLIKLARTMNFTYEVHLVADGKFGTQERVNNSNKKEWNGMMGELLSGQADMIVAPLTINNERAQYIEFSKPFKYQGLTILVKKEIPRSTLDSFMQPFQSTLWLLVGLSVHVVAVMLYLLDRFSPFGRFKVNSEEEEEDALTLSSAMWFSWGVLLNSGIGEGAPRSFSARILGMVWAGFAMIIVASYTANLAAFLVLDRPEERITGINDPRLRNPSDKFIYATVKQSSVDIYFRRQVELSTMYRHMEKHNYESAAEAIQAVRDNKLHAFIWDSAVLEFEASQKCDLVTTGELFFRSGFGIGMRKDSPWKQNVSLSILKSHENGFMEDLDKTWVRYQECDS", "experiment": "Eurofins Diversity Panel", "format": "binding", "settings": "Conc. 10 μM"}, "[2]": {"tested_on": "broad range of receptors, transporters, ion channels, and enzymes", "experiment": "Eurofins Diversity Panel, whole panel (n = 138)", "format": "binding", "settings": "10 µM, except imidazoline I2, Sigma σ1, adrenergic α2A, α2B, α2C"}, "PKNB(M.tuberculosis) [3]": {"molecular_target": "T3, PKNB(M.tuberculosis) (Mycobacterium tuberculosis, UniProt P9WI81)", "T3 sequence (P9WI81 whole entry)": "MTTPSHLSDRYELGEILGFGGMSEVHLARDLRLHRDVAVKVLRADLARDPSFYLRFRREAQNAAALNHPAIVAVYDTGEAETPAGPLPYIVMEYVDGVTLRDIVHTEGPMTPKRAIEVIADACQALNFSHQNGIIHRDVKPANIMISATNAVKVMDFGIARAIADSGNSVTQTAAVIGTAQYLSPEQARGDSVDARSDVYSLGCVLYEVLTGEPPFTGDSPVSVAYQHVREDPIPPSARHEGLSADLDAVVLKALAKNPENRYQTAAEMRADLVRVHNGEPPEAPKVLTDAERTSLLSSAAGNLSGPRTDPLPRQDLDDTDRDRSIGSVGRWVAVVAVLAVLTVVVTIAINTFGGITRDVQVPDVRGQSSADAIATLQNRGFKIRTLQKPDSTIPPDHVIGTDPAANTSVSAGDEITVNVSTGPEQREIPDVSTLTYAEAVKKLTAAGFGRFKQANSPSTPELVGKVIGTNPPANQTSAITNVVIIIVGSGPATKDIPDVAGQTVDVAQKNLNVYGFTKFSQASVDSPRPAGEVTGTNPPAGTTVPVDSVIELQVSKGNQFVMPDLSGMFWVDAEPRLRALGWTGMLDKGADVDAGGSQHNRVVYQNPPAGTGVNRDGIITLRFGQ", "experiment": "DiscoverX KINOMEscan kinase profiling: PKNB(M.tuberculosis)", "format": "binding", "settings": "PKNB(M.tuberculosis) (Entrez pknB); 100 nM; read-out: Percent Control"}, "PKNB(M.tuberculosis) [4]": {"molecular_target": "T3, PKNB(M.tuberculosis)", "experiment": "DiscoverX KINOMEscan kinase profiling", "format": "binding", "settings": "kinase PKNB(M.tuberculosis) (Entrez pknB); compound concentration 1000 nM; read-out: Percent Control"}, "RET(V804L)": {"molecular_target": "RET(V804L) (Homo sapiens, UniProt P07949, V804L)", "experiment": "KINOMEscan: RET(V804L)", "format": "binding", "settings": "100 nM, read-out: Percent Control"}, "RIPK5": {"molecular_target": "RIPK5 (Homo sapiens, UniProt Q6XUX3)", "experiment": "KINOMEscan: RIPK5", "format": "binding", "settings": "100 nM, read-out: Percent Control"}, "[5]": {"molecular_target": "RSK4(Kin.Dom.2-C-terminal) (Homo sapiens, UniProt Q9UK32)", "experiment": "KINOMEscan: RSK4(Kin.Dom.2-C-terminal)", "format": "binding", "settings": "100 nM, read-out: Percent Control"}, "SGK2": {"molecular_target": "SGK2 (Homo sapiens, UniProt Q9HBY8)", "experiment": "KINOMEscan: SGK2", "format": "binding", "settings": "100 nM, read-out: Percent Control"}, "TRKA": {"molecular_target": "TRKA (Homo sapiens, UniProt P04629)", "sequence (P04629 33-796)": "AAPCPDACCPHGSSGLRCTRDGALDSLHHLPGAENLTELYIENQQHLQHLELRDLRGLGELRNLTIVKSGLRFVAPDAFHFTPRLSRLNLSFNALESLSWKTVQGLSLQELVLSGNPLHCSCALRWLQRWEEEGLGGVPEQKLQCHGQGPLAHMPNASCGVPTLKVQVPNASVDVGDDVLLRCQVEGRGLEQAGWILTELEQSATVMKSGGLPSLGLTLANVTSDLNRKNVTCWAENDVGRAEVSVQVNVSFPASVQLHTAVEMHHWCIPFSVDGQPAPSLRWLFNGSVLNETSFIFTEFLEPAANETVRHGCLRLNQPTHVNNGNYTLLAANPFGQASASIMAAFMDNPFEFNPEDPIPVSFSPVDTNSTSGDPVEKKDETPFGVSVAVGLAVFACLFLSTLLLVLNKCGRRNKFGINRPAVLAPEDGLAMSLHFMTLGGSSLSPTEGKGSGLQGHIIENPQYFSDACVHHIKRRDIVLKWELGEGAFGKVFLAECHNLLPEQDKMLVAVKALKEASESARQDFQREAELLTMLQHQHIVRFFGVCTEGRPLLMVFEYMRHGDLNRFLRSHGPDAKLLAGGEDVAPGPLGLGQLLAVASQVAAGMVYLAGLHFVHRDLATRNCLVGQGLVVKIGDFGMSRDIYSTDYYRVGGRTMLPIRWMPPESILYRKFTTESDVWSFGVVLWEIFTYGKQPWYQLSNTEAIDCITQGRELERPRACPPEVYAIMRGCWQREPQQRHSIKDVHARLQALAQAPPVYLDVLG", "experiment": "KINOMEscan: TRKA", "format": "binding", "settings": "100 nM, read-out: Percent Control"}, "TTK": {"molecular_target": "TTK (Homo sapiens, UniProt P33981)", "experiment": "KINOMEscan: TTK", "format": "binding", "settings": "100 nM, read-out: Percent Control"}, "WNK1": {"molecular_target": "WNK1 (Homo sapiens, UniProt Q9H4A3)", "experiment": "KINOMEscan: WNK1", "format": "binding", "settings": "100 nM, read-out: Percent Control"}, "AMPK-alpha1": {"molecular_target": "AMPK-alpha1 (Homo sapiens, UniProt Q13131)", "sequence (Q13131 whole entry)": "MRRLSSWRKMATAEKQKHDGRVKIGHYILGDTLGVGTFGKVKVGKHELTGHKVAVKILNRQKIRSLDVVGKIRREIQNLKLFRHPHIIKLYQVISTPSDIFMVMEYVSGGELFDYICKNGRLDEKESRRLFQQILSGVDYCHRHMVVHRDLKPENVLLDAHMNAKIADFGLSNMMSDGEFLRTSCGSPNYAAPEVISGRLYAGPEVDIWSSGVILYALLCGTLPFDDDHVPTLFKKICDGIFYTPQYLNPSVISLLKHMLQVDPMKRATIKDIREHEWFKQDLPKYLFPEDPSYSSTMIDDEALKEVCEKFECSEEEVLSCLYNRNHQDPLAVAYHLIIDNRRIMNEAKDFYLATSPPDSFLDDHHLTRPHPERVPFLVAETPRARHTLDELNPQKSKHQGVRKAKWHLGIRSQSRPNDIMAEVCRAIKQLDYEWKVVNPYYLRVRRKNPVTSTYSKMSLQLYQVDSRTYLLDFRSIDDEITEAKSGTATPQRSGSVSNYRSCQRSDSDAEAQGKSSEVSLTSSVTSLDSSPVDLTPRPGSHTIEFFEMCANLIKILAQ", "experiment": "KINOMEscan: AMPK-alpha1", "format": "binding", "settings": "1000 nM, read-out: Percent Control"}, "AURKC": {"molecular_target": "AURKC (Homo sapiens, UniProt Q9UQB9)", "sequence (Q9UQB9 whole entry)": "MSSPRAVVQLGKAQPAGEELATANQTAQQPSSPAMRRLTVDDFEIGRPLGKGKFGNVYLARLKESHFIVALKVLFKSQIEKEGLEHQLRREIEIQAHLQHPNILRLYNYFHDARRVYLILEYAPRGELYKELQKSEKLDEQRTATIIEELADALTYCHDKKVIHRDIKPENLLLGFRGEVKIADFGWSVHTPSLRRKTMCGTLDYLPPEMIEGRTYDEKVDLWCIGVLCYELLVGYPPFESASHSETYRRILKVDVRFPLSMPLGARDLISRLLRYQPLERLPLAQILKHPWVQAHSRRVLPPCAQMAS", "experiment": "KINOMEscan: AURKC", "format": "binding", "settings": "1000 nM, read-out: Percent Control"}, "CSF1R": {"molecular_target": "CSF1R (Homo sapiens, UniProt P07333)", "experiment": "KINOMEscan: CSF1R", "format": "binding", "settings": "1000 nM, read-out: Percent Control"}, "EGFR(T790M)": {"molecular_target": "EGFR(T790M) (Homo sapiens, UniProt P00533, T790M)", "experiment": "KINOMEscan: EGFR(T790M)", "format": "binding", "settings": "1000 nM, read-out: Percent Control"}, "EPHA4": {"molecular_target": "EPHA4 (Homo sapiens, UniProt P54764)", "experiment": "KINOMEscan: EPHA4", "format": "binding", "settings": "1000 nM, read-out: Percent Control"}, "ERN1": {"molecular_target": "ERN1 (Homo sapiens, UniProt O75460)", "experiment": "KINOMEscan: ERN1", "format": "binding", "settings": "1000 nM, read-out: Percent Control"}, "FLT3(N841I)": {"molecular_target": "FLT3(N841I) (Homo sapiens, UniProt P36888, N841I)", "experiment": "KINOMEscan: FLT3(N841I)", "format": "binding", "settings": "1000 nM, read-out: Percent Control"}, "FLT3-autoinhibited": {"molecular_target": "FLT3-autoinhibited (Homo sapiens, UniProt P36888)", "experiment": "KINOMEscan: FLT3-autoinhibited", "format": "binding", "settings": "1000 nM, read-out: Percent Control"}, "GCN2(Kin.Dom.2,S808G)": {"molecular_target": "GCN2(Kin.Dom.2,S808G) (Homo sapiens, UniProt Q9P2K8, S808G)", "experiment": "KINOMEscan: GCN2(Kin.Dom.2,S808G)", "format": "binding", "settings": "1000 nM, read-out: Percent Control"}, "HASPIN": {"molecular_target": "HASPIN (Homo sapiens, UniProt Q8TF76)", "experiment": "KINOMEscan: HASPIN", "format": "binding", "settings": "1000 nM, read-out: Percent Control"}, "LCK": {"molecular_target": "LCK (Homo sapiens, UniProt P06239)", "experiment": "KINOMEscan: LCK", "format": "binding", "settings": "1000 nM, read-out: Percent Control"}, "MST2": {"molecular_target": "MST2 (Homo sapiens, UniProt Q13188)", "experiment": "KINOMEscan: MST2", "format": "binding", "settings": "1000 nM, read-out: Percent Control"}, "[6]": {"molecular_target": "CDK9 in complex with Cyclin T1 (Homo sapiens, UniProt P50750)", "sequence (P50750 whole entry)": "as the sequence (P50750 whole entry) above", "sequence (O60563 whole entry partner)": "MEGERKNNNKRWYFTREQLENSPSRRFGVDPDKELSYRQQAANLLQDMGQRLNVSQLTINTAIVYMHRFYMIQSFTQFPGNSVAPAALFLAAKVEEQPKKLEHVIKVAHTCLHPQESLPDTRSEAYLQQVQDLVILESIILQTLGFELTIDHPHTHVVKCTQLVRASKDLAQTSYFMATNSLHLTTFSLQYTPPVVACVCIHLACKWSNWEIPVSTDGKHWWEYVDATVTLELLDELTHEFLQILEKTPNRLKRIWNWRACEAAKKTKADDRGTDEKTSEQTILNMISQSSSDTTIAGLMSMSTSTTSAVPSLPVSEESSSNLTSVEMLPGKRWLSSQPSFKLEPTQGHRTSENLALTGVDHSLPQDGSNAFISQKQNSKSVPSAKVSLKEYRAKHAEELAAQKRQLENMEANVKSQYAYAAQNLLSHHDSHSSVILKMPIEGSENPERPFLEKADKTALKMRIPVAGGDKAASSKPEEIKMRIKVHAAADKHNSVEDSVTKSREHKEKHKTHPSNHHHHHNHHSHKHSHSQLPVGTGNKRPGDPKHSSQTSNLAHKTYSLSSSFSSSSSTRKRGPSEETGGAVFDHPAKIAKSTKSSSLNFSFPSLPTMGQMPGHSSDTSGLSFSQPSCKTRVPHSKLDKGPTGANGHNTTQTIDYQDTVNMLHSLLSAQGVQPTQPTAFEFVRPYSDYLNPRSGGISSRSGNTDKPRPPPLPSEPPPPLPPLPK", "experiment": "HotSpot radiometric kinase assay", "format": "biochemical", "set-up": "purchased ReactionBio", "protocol": "(§1) We next compared VIP152 to other CDK inhibitors currently in development. […] The compounds were tested in a 10-dose series from 0.5 nM to 10 µM against CDK9 in complex with Cyclin T1/T2/K, CDK7/Cyclin H, and GSK3α/β. […]\n(§2) HotSpot Kinase Assay Protocol\n(§3) Compounds tested via HotSpot Kinase Assay were sent to ReactionBio for the experiment. The […]\n(§4) Kinase substrate was added to reaction buffer (20 mM Hepes (pH 7.5), 10 mM MgCl2, 1 mM EGTA, 0.01% Brij35, 0.02 mg/ml BSA, 0.1 mM Na3VO4, 2 mM DTT, 1% DMSO). Cofactors and kinases were gently added to the reaction buffer. Compounds to be tested were dissolved in 100% DMSO and were delivered into the kinase reaction mixture by Acoustic technology (Echo550; nanoliter range) and incubated for 20 min at room temperature. 32P-ATP was delivered into the reaction mixture and the reaction was allowed to proceed for 2 hours. Kinase activity was detected by P81 filter-binding method."}, "[7]": {"molecular_target": "T1, CDK9 in complex with Cyclin T2", "experiment": "HotSpot radiometric kinase assay", "format": "biochemical", "set-up": "purchased ReactionBio", "settings": "10-dose series from 0.5 nM to 10 µM; vs dinaciclib, KB-0742, atuveciclib", "protocol": "as §1, §2, §3, §4"}, "GSK3β": {"molecular_target": "GSK3β (Homo sapiens, UniProt P49841)", "sequence (P49841 whole entry)": "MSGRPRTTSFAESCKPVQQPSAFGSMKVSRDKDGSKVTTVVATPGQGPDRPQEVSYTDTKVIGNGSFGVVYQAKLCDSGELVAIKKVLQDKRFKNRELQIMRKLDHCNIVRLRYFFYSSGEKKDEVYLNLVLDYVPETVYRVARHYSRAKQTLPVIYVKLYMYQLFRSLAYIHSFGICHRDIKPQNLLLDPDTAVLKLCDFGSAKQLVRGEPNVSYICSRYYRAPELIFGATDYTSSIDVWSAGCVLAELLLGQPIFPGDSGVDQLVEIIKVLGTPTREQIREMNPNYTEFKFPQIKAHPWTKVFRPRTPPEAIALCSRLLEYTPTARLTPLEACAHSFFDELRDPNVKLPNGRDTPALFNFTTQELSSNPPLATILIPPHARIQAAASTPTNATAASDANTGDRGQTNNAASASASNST", "experiment": "HotSpot radiometric kinase assay", "format": "biochemical", "set-up": "purchased ReactionBio", "settings": "10-dose series from 0.5 nM to 10 µM; vs dinaciclib, KB-0742, atuveciclib", "protocol": "as §1, §2, §3, §4"}, "CDK7/Cyclin H": {"molecular_target": "CDK7/Cyclin H (Homo sapiens, UniProt P50613)", "experiment": "NanoBRET target engagement assay (HEK293)", "format": "cell-based", "set-up": "host or cells: HEK293"}}}
{"smiles": "COc1cc(F)ccc1-c1cc(Nc2cc(CS(C)(=N)=O)ccn2)ncc1F", "note": "(stereo not drawn) [VIP152]", "values": [{"measurement": "potency versus the other inhibitors", "setting": "[1]", "result": "higher potency"}, {"measurement": "IC50", "setting": "α2C receptor", "result": 340, "unit": "nM"}, {"measurement": "inhibition at 10 µM", "setting": "Estrogen Erα", "result": 6, "unit": "%"}, {"measurement": "% Inh.", "setting": "GABAA, Muscimol, Central", "result": -3, "unit": "%"}, {"measurement": "inhibition at 10 µM", "setting": "GABAB1A", "result": 1, "unit": "%"}, {"measurement": "inhibition at 10 µM", "setting": "Glutamate, NMDA, Glycine", "result": 12, "unit": "%"}, {"measurement": "off-target activity across the panel", "setting": "[2]", "result": "No significant (>50%) interference"}, {"measurement": "remaining binding at 0.1 µM", "setting": "PKNB(M.tuberculosis) [3]", "result": 100, "unit": "%"}, {"measurement": "remaining binding at 1 µM", "setting": "PKNB(M.tuberculosis) [4]", "result": 100, "unit": "%"}, {"measurement": "remaining binding at 0.1 µM", "setting": "RET(V804L)", "result": 100, "unit": "%"}, {"measurement": "remaining binding at 0.1 µM", "setting": "RIPK5", "result": 83, "unit": "%"}, {"measurement": "remaining binding at 0.1 µM", "setting": "[5]", "result": 100, "unit": "%"}, {"measurement": "remaining binding at 0.1 µM", "setting": "SGK2", "result": 100, "unit": "%"}, {"measurement": "remaining binding at 0.1 µM", "setting": "TRKA", "result": 65, "unit": "%"}, {"measurement": "remaining binding at 0.1 µM", "setting": "TTK", "result": 95, "unit": "%"}, {"measurement": "remaining binding at 0.1 µM", "setting": "WNK1", "result": 100, "unit": "%"}, {"measurement": "remaining binding at 1 µM", "setting": "AMPK-alpha1", "result": 91, "unit": "%"}, {"measurement": "remaining binding at 1 µM", "setting": "AURKC", "result": 38, "unit": "%"}, {"measurement": "remaining binding at 1 µM", "setting": "CSF1R", "result": 70, "unit": "%"}, {"measurement": "remaining binding at 1 µM", "setting": "EGFR(T790M)", "result": 94, "unit": "%"}, {"measurement": "remaining binding at 1 µM", "setting": "EPHA4", "result": 94, "unit": "%"}, {"measurement": "remaining binding at 1 µM", "setting": "ERN1", "result": 86, "unit": "%"}, {"measurement": "remaining binding at 1 µM", "setting": "FLT3(N841I)", "result": 54, "unit": "%"}, {"measurement": "remaining binding at 1 µM", "setting": "FLT3-autoinhibited", "result": 76, "unit": "%"}, {"measurement": "remaining binding at 1 µM", "setting": "GCN2(Kin.Dom.2,S808G)", "result": 100, "unit": "%"}, {"measurement": "remaining binding at 1 µM", "setting": "HASPIN", "result": 99, "unit": "%"}, {"measurement": "remaining binding at 1 µM", "setting": "LCK", "result": 56, "unit": "%"}, {"measurement": "remaining binding at 1 µM", "setting": "MST2", "result": 96, "unit": "%"}, {"measurement": "potency versus the other inhibitors tested", "setting": "[6]; 10-dose series from 0.5 nM to 10 µM, vs dinaciclib, KB-0742, atuveciclib", "result": "higher potency"}, {"measurement": "increase in potency compared with other inhibitors currently in development", "setting": "[6]; CDK9", "result": "> 10", "unit": "fold"}, {"measurement": "potency versus the other inhibitors tested", "setting": "[7]", "result": "higher potency"}, {"measurement": "potency versus the other inhibitors tested", "setting": "GSK3β", "result": "higher potency"}, {"measurement": "IC50 compared with other inhibitors", "setting": "CDK7/Cyclin H", "result": "IC50 was higher than dinaciclib and KB-0742"}]}
